Consider 7 compounds from US20250332173A1, “COMPOUNDS AND METHODS FOR MODULATING NUCLEIC ACID SPLICING” (REMIX THERAPEUTICS INC., priority 2021, published 2025).

Read-outs that look alike come from different tables or passages of the source.

For one assay, the system named is MYB mRNA. The assay is described as follows: RT-qPCR splicing assay, MYB canonical junction (CJ) and alternative junction (AJ) mRNA. The assay is classed as cell-based, human. The conditions noted are these: Homo sapiens; for AC50: increase in MYB alternative junction (AJ) mRNA, read-out: MYB AJ AC50. In short, it runs like this: (§1)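 A673 or K562 cells were treated for 24 h at 37 °C with an 11-point 3-fold compound dilution series (top final concentration 10 uM, DMSO ≤0.25%). After lysis, one-step TaqMan RT-qPCR quantified junction transcripts, normalized to PPIA for A673 or to GAPDH/GUSB for K562.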

The test system of a further assay is Target C. The assay is described as follows: RT-qPCR splicing assay panel, Target C canonical junction (CJ) mRNA. The assay is classed as cell-based, human. The conditions noted are these: Homo sapiens; canonical junction qPCR panel, Table 5; read-out: Target C (decrease in CJ mRNA levels, IC50). The essentials: (§2)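 A673 cells (DMEM/10% FBS) or K562 cells (IMDM/10% FBS) were treated 24 h at 37° C. with 11-point 3-fold dilutions (top 10 uM, ≤0.25% DMSO). Canonical-junction mRNA was quantified in lysates by RT-qPCR, normalized to GAPDH, GUSB or PPIA.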

The subject of a further assay is SMN2 mRNA. The assay is described as follows: RT-qPCR splicing assay, SMN2 canonical junction (CJ) mRNA. The conditions noted are these: Homo sapiens; canonical junction qPCR panel, Table 5; read-out: SMN2 (decrease in CJ mRNA levels, IC50). The assay is classed as cell-based, human. The essentials:
as §2
In general terms: Quantitative PCR measures a nucleic acid by following its amplification.

For a further assay, the system named is HTT mRNA. The assay is described as follows: RT-qPCR splicing assay, HTT canonical junction (CJ) and alternative junction (AJ) mRNA. The settings on record: Homo sapiens; for AC50: increase in HTT alternative junction (AJ) mRNA, read-out: HTT AJ AC50. The assay is classed as cell-based, human. In short, it runs like this:
as §1

The subject of assay [1] is K562 (human chronic myelogenous leukemia) cells. The assay is described as follows: Cell Titer Glo 2.0 cell viability assay. The conditions noted are these: Homo sapiens, K562, 72 h, K562 cells, 72 hours, Cell Titer Glo 2.0; read-out: K562 GI50. The class given is cell-based. For orientation: Cellular ATP, detected with luciferase, serves as a proxy for viable cell number.

[2] abbreviates: canonical junction qPCR panel, Table 5, read-out: MYB (decrease in CJ mRNA levels, IC50).
Setting [3] is: decrease in MYB canonical junction (CJ) mRNA, RT-qPCR, read-out: MYB CJ IC50.
Where [4] appears, read: decrease in HTT canonical junction (CJ) mRNA, RT-qPCR, read-out: HTT CJ IC50.
Setting [5] is: canonical junction qPCR panel, Table 5, read-out: HTT (decrease in CJ mRNA levels, IC50).

Usually IC50 stands for the point on the concentration scale where inhibition reaches its midpoint. As usually defined, the AC50 is the midpoint of the concentration-response curve, whichever way the signal moves. In general, GI50 refers to the concentration that inhibits growth by half. Take `Cc1cn2nc(-c3ccc4c(=O)n([C@H]5CCNC6(CCC6)C5)ncc4n3)cc(C)c2n1` [Compound 1544, 6-[(8S)-5-azaspiro[3.5]nonan-8-yl]-2-(2,8-dimethylimidazo[1,2-b]pyridazin-6-yl)pyrido[2,3-d]pyridazin-5-one]: the IC50 with MYB mRNA (setting [2]), in the assay on MYB mRNA (setting [3]), in the assay on Target C, with SMN2 mRNA, with HTT mRNA (setting [4]) and in the assay with HTT mRNA (setting [5]) was 100 to 1000 nM throughout. In addition, the AC50 in the assay with MYB mRNA (RT-qPCR) and with HTT mRNA (RT-qPCR) was 100 to 1000 nM in each case. Besides, the concentration for 50% growth inhibition (GI50) in assay [1] lay within 100 to 1000 nM.

`Cc1cn2nc(-c3ccc4c(=O)n(C5CCNC6(CC6)C5)ncc4n3)cc2c(C)n1` (stereo not drawn) [Compound 1547, 6-(4-azaspiro[2.5]octan-7-yl)-2-(4,6-dimethylpyrazolo[1,5-a]pyrazin-2-yl)pyrido[2,3-d]pyridazin-5-one]: the IC50 with MYB mRNA (setting [2]) is 1000 to 10000 nM; in the assay on MYB mRNA (setting [3]), 1000 to 10000 nM; in the assay with Target C, 1000 to 10000 nM; in the assay with SMN2 mRNA, 100 to 1000 nM; with HTT mRNA (setting [4]) it was 1000 to 10000 nM; in the assay on HTT mRNA (setting [5]), 100 to 1000 nM. The AC50 was in the range of 1000 to 10000 nM in the assay with MYB mRNA (RT-qPCR) and 100 to 1000 nM in the assay with HTT mRNA (RT-qPCR). Moreover, in assay [1], the GI50 fell in the range of 1000 to 10000 nM.

For `Cc1cn2nc(-c3ccc4c(=O)n([C@@H]5CCNC6(CC6)C5)ncc4n3)cc2c(C)n1` [Compound 1548, 6-[(7R)-4-azaspiro[2.5]octan-7-yl]-2-(4,6-dimethylpyrazolo[1,5-a]pyrazin-2-yl)pyrido[2,3-d]pyridazin-5-one], the 50% inhibitory concentration (IC50) with MYB mRNA (setting [2]), in the assay on MYB mRNA (setting [3]), with Target C, in the assay on SMN2 mRNA, with HTT mRNA (setting [4]) and in the assay on HTT mRNA (setting [5]) was 100 to 1000 nM in each case. In addition, the AC50 in the assay with MYB mRNA (RT-qPCR) and with HTT mRNA (RT-qPCR) was 100 to 1000 nM in each case. Further, in assay [1], the concentration for 50% growth inhibition (GI50) fell in the range of 100 to 1000 nM.

For the compound `Cc1cn2nc(-c3ccc4c(=O)n([C@H]5CCNC6(CC6)C5)ncc4n3)cc2c(C)n1` [Compound 1549, 6-[(7S)-4-azaspiro[2.5]octan-7-yl]-2-(4,6-dimethylpyrazolo[1,5-a]pyrazin-2-yl)pyrido[2,3-d]pyridazin-5-one], the IC50 with MYB mRNA (setting [2]) is 1000 to 10000 nM; with MYB mRNA (setting [3]) it was 1000 to 10000 nM; with Target C, 1000 to 10000 nM; in the assay with SMN2 mRNA it was 100 to 1000 nM; with HTT mRNA (setting [4]), 100 to 1000 nM; in the assay with HTT mRNA (setting [5]) it was 100 to 1000 nM. In addition, the AC50 with MYB mRNA (RT-qPCR) is 1000 to 10000 nM; in the assay with HTT mRNA (RT-qPCR), 100 to 1000 nM. In addition, the GI50 in assay [1] lay within 1000 to 10000 nM.

With `Cc1cn2nc(-c3ccc4c(=O)n([C@H]5CCN[C@@H](C6CC6)C5)ncc4n3)cc(C)c2n1` [Compound 1550], the half-inhibitory concentration (IC50) in the assay with MYB mRNA (setting [2]), in the assay on MYB mRNA (setting [3]), in the assay with Target C, in the assay with SMN2 mRNA, in the assay with HTT mRNA (setting [4]) and in the assay on HTT mRNA (setting [5]) was 100 to 1000 nM throughout. Also, the AC50 with MYB mRNA (RT-qPCR) and in the assay with HTT mRNA (RT-qPCR) was 100 to 1000 nM throughout. In addition, the GI50 in assay [1] was 1000 to 10000 nM.

With `Cc1cn2nc(-c3ccc4c(=O)n([C@@H]5CCN[C@@H](C6CC6)C5)ncc4n3)cc(C)c2n1` [Compound 1551], the IC50 in the assay on MYB mRNA (setting [2]) is 100 to 1000 nM; in the assay on MYB mRNA (setting [3]) it was 100 to 1000 nM; with Target C, 100 to 1000 nM; with SMN2 mRNA it was below 100 nM; in the assay with HTT mRNA (setting [4]) it was 100 to 1000 nM; in the assay with HTT mRNA (setting [5]), 100 to 1000 nM. The AC50 with MYB mRNA (RT-qPCR) and in the assay with HTT mRNA (RT-qPCR) was 100 to 1000 nM each time. In addition, in assay [1], the GI50 lay within 100 to 1000 nM.

In the case of `CN1CCN(c2ccc3ncn(-c4cc(F)c5nn(C)cc5c4)c(=O)c3c2)CC1` [Compound 2194], the IC50 in the assay with MYB mRNA (setting [2]), in the assay on MYB mRNA (setting [3]), with Target C, in the assay on SMN2 mRNA, in the assay with HTT mRNA (setting [4]) and in the assay with HTT mRNA (setting [5]) was 1000 to 10000 nM throughout. In addition, the AC50 in the assay with MYB mRNA (RT-qPCR) and in the assay with HTT mRNA (RT-qPCR) was 1000 to 10000 nM throughout. Besides, in assay [1], the GI50 is 1000 to 10000 nM.
